Experimental data published in US8309558B2, “Compounds for the treatment of hepatitis C” (Bristol-Myers Squibb Company, priority 2008, dated 2012).

Test system: HCV replicon cells
Experiment: HCV replicon FRET / luciferase assay (96-well plates)
Type: cell-based
Conditions: Hepatitis C virus, 24 h, Table 1d (class symbols); HCV replicon; read-out: EC50
From the text: FRET Assay Preparation. To perform the HCV FRET screening assay, 96-well cell culture plates were used. The FRET peptide (Anaspec, Inc.) (Taliani et al., Anal. Biochem. 1996, 240, 60-67) contains a fluorescence donor, EDANS, near one end of the peptide and an acceptor, DABCYL, near the other end. The fluorescence of the peptide is quenched by […] resonance energy transfer (RET) between the donor and the acceptor, but as the NS3 protease cleaves the peptide the products are released from RET quenching and the fluorescence of the donor becomes apparent. The assay reagent was made as follows: 5× cell Luciferase cell culture lysis reagent from Promega (#E153A) diluted to 1× with dH2O, NaCl added to 150 mM final, the FRET peptide diluted to 20 μM final from a 2 mM stock.
To prepare plates, HCV replicon cells, with or without a Renilla luciferase reporter gene, were trypsinized and placed into each well of a 96-well plate with titrated test compounds added in columns 3 through 12; columns 1 and 2 contained a control compound (HCV protease inhibitor), and the bottom row contained cells without compound. The plates were then placed in a CO2 incubator at 37° C.
Assays. Subsequent to addition of the test compounds described above (FRET Assay Preparation), at various times the plate was removed and Alamar blue solution (Trek Diagnostics, #00-100) was added per well as a measure of cellular toxicity. After reading in a Cytoflour 4000 instrument (PE Biosystems), plates were rinsed with PBS and then used for FRET assay by the addition of 30 ul of the FRET peptide assay reagent described above (FRET Assay Preparation) per well. The plate was then placed into the Cytoflour 4000 instrument which had been set to 340 excite/490 emission, automatic mode for 20 cycles and the plate read in a kinetic mode. Typically, the signal to noise using an endpoint analysis after the reads was at least three-fold. Alternatively, after Alamar blue reading, plates were rinsed with PBS, 50 ul of DMEM (high glucose) without phenol red was added and plates were then used for luciferase assay using the Promega Dual-Glo Luciferase Assay System.
Compound analysis was determined by quantification of the relative HCV replicon inhibition and the relative cytotoxicity values. To calculate cytoxicity values, the average Alamar Blue fluorescence signals from the control wells were set as 100% non-toxic. The individual signals in each of the compound test wells were then divided by the average control signal and multiplied by 100% to determine […]. To calculate the HCV replicon inhibition values, an average background value was obtained from the two wells containing the highest amount of HCV protease inhibitor at the end of the assay period. These numbers were similar to those obtained from naïve Huh-7 cells.
The background numbers were then subtracted from the average signal obtained from the control wells and this number was used as 100% activity. The individual signals in each of the compound test wells were then divided by the averaged control values after background subtraction and multiplied by 100% to determine percent activity. EC50 values for a protease inhibitor titration were calculated as the concentration which caused a 50% reduction in FRET or luciferase activity. The two numbers generated for the compound plate, percent cytoxicity and percent activity were used to determine compounds of interest for further analysis.

Compound	EC50 [nM]
CNC(=O)c1c(-c2ccc(F)cc2)oc2ccc(-c3cc(C(=O)NC4(c5ccccn5)CC4)c(OCC#N)cc3C)cc12	1 to 250
CNC(=O)c1c(-c2ccc(F)cc2)oc2ccc(-c3cc(C(=O)NC4(c5cncnc5)CC4)c(OC)cc3C)cc12	1 to 250
CCCCOc1cc(C)c(-c2ccc3oc(-c4ccc(F)cc4)c(C(=O)NC)c3c2)cc1C(=O)NC1(c2ccccn2)CC1	1 to 250
CNC(=O)c1c(-c2ccc(F)cc2)oc2ccc(-c3cc(C(=O)NC4(c5ccccn5)CC4)c(OCCC(C)C)cc3C)cc12	1 to 250
CNC(=O)c1c(-c2ccc(F)cc2)oc2ccc(-c3cc(C(=O)NC4(c5ccccn5)CC4)c(OCCN(C)C)cc3C)cc12	1 to 250
CNC(=O)c1c(-c2ccc(F)cc2)oc2ccc(-c3cc(C(=O)NC4(c5ccccn5)CC4)c(OCCCN(C)C)cc3C)cc12	1 to 250
CNC(=O)c1c(-c2ccc(F)cc2)oc2ccc(-c3cc(C(=O)NC4(c5ccccn5)CC4)c(OC4CCC4)cc3C)cc12	1 to 250
CNC(=O)c1c(-c2ccc(F)cc2)oc2ccc(-c3cc(C(=O)NC4(c5ccccn5)CC4)c(OC4CCCCC4)cc3C)cc12	1 to 250
CNC(=O)c1c(-c2ccc(F)cc2)oc2ccc(-c3cc(C(=O)NC4(c5ccccn5)CC4)c(OCCCOC)cc3C)cc12	1 to 250
CNC(=O)c1c(-c2ccc(F)cc2)oc2ccc(-c3cc(C(=O)NC4(c5ccccn5)CC4)c(OCCC4CC4)cc3C)cc12	1 to 250
CNC(=O)c1c(-c2ccc(F)cc2)oc2ccc(-c3cc(C(=O)NC4(c5ccccn5)CC4)c(OCc4ccccc4)cc3C)cc12	1 to 250
CNC(=O)c1c(-c2ccc(F)cc2)oc2ccc(-c3cc(C(=O)NC4(c5ccccn5)CC4)c(OCc4ccccc4Cl)cc3C)cc12	1 to 250
CNC(=O)c1c(-c2ccc(F)cc2)oc2ccc(-c3cc(C(=O)NC4(c5ccccn5)CC4)c(OCc4cccc(Cl)c4)cc3C)cc12	1 to 250
CNC(=O)c1c(-c2ccc(F)cc2)oc2ccc(-c3cc(C(=O)NC4(c5ccccn5)CC4)c(OCc4ccc(Cl)cc4)cc3C)cc12	1 to 250
CNC(=O)c1c(-c2ccc(F)cc2)oc2ccc(-c3cc(C(=O)NC4(c5ccccn5)CC4)c(OCCc4ccccc4)cc3C)cc12	1 to 250
CNC(=O)c1c(-c2ccc(F)cc2)oc2ccc(-c3cc(C(=O)NC4(c5ccccn5)CC4)c(OCCc4ccc(OC)cc4)cc3C)cc12	1 to 250
CNC(=O)c1c(-c2ccc(F)cc2)oc2ccc(-c3cc(C(=O)NC4(c5ccccn5)CC4)c(OCCc4ccc(N(C)C)cc4)cc3C)cc12	1 to 250
CNC(=O)c1c(-c2ccc(F)cc2)oc2ccc(-c3cc(C(=O)NC4(c5ccccn5)CC4)c(OC4CCOCC4)cc3C)cc12	1 to 250
CNC(=O)c1c(-c2ccc(F)cc2)oc2ccc(-c3cc(C(=O)NC4(c5ccccn5)CC4)c(OCc4ccccn4)cc3C)cc12	1 to 250
CNC(=O)c1c(-c2ccc(F)cc2)oc2ccc(-c3cc(C(=O)NC4(c5ccccn5)CC4)c(OCc4cccnc4)cc3C)cc12	1 to 250

Compound	EC50 [nM]
CNC(=O)c1c(-c2ccc(F)cc2)oc2ccc(-c3cc(C(=O)NC4(c5ccccn5)CC4)c(OCC4CCOC4)cc3C)cc12 (stereo not shown)	1 to 250
CNC(=O)c1c(-c2ccc(F)cc2)oc2ccc(-c3cc(C(=O)NC4(c5ccccn5)CC4)c(OCCn4ccnc4)cc3C)cc12	1 to 250
CNC(=O)c1c(-c2ccc(F)cc2)oc2ccc(-c3cc(C(=O)NC4(c5ccccn5)CC4)c(OCCN4CCN(C)CC4)cc3C)cc12	1 to 250
CNC(=O)c1c(-c2ccc(F)cc2)oc2ccc(-c3cc(C(=O)NC4(c5ccccn5)CC4)c(OCc4ccncc4)cc3C)cc12	1 to 250
CNC(=O)c1c(-c2ccc(F)cc2)oc2ccc(-c3cc(C(=O)NC4(c5ncoc5C)CC4)ccc3C)cc12	1 to 250
CNC(=O)c1c(-c2ccc(F)cc2)oc2ccc(-c3cc(C(=O)NC4(c5ccccn5)CC4)c(OCCN4CCOCC4)cc3C)cc12	1 to 250
CNC(=O)c1c(-c2ccc(F)cc2)oc2ccc(-c3cc(C(=O)NC4(c5ccccn5)CC4)c(OCC4CCOCC4)cc3C)cc12	1 to 250
CNC(=O)c1c(-c2ccc(F)cc2)oc2ccc(-c3cc(C(=O)NC4(c5ocnc5C)CC4)ccc3C)cc12	1 to 250
CNC(=O)c1c(-c2ccc(F)cc2)oc2ccc(-c3cc(C(=O)NC4(c5nc(C)cc(C)n5)CC4)c(OC)cc3C)cc12	1 to 250
CNC(=O)c1c(-c2ccc(F)cc2)oc2ccc(-c3cc(C(=O)NC4(c5cnccn5)CC4)ccc3C)cc12	1 to 250
CNC(=O)c1c(-c2ccc(F)cc2)oc2ccc(-c3cc(C(=O)NC4(c5nc(C)cc(C)n5)CC4)ccc3C)cc12	1 to 250
CNC(=O)c1c(-c2ccc(F)cc2)oc2ccc(-c3cc(C(=O)NC4(c5nccc(C)n5)CC4)ccc3C)cc12	1 to 250
CNC(=O)c1c(-c2ccc(F)cc2)oc2ccc(-c3cc(C(=O)NC4(c5ncc(C)cn5)CC4)ccc3C)cc12	1 to 250
CNC(=O)c1c(-c2ccc(F)cc2)oc2ccc(-c3cc(C(=O)NC4(c5ncc(F)cn5)CC4)ccc3C)cc12	1 to 250
CNC(=O)c1c(-c2ccc(F)cc2)oc2ccc(-c3cc(C(=O)NC4(c5ccncn5)CC4)c(OC)cc3C)cc12	1 to 250
CNC(=O)c1c(-c2ccc(F)cc2)oc2ccc(-c3cc(C(=O)NC4(c5nccc(C)n5)CC4)c(OC)cc3C)cc12	1 to 250
CNC(=O)c1c(-c2ccc(F)cc2)oc2ccc(-c3cc(C(=O)NC4(c5ncc(F)cn5)CC4)c(OC)cc3C)cc12	1 to 250
CNC(=O)c1c(-c2ccc(F)cc2)oc2ccc(-c3cc(C(=O)NC4(c5ccnnc5)CC4)ccc3C)cc12	1 to 250
CNC(=O)c1c(-c2ccc(F)cc2)oc2ccc(-c3cc(C(=O)NC4(c5ncc(C)cn5)CC4)c(OC)cc3C)cc12	1 to 250
CNC(=O)c1c(-c2ccc(F)cc2)oc2ccc(-c3cc(C(=O)NC4(c5nccc(C)n5)CC4)c(OC)cc3C)c(F)c12	1 to 250

Compound	EC50 [nM]
CNC(=O)c1c(-c2ccc(F)cc2)oc2ccc(-c3cc(C(=O)NC4(c5ncc(C)cn5)CC4)c(OC)cc3C)c(F)c12	1 to 250
CNC(=O)c1c(-c2ccc(F)cc2)oc2ccc(-c3cc(C(=O)NC4(c5cnccn5)CC4)c(OC)cc3C)c(F)c12	1 to 250
CNC(=O)c1c(-c2ccc(F)cc2)oc2ccc(-c3cc(C(=O)NC4(c5ccnnc5)CC4)c(OC)cc3C)cc12	1 to 250
CNC(=O)c1c(-c2ccc(F)cc2)oc2ccc(-c3cc(C(=O)NC4(c5ccncn5)CC4)c(OC)cc3C)c(F)c12	1 to 250
CNC(=O)c1c(-c2ccc(F)cc2)oc2ccc(-c3cc(C(=O)NC4(c5nc(C)cc(C)n5)CC4)c(OC)cc3C)c(F)c12	1 to 250
CNC(=O)c1c(-c2ccc(F)cc2)oc2ccc(-c3cc(C(=O)NC(C)(C)C)c(OC)cc3OCC(N)=O)cc12	1 to 250
CNC(=O)c1c(-c2ccc(F)cc2)oc2ccc(-c3cc(C(=O)NC4(c5cccnn5)CC4)c(OC)cc3C)cc12	1 to 250
CNC(=O)c1c(-c2ccc(F)cc2)oc2ccc(-c3cc(C(=O)NC4(c5cnccn5)CC4)ccc3C)c(F)c12	1 to 250
CNC(=O)c1c(-c2ccc(F)cc2)oc2ccc(-c3cc(C(=O)NC4(c5ccncn5)CC4)ccc3C)c(F)c12	1 to 250
CNC(=O)c1c(-c2ccc(F)cc2)oc2ccc(-c3cc(C(=O)NC4(c5cccnn5)CC4)ccc3C)c(F)c12	1 to 250
CNC(=O)c1c(-c2ccc(F)cc2)oc2ccc(-c3cc(C(=O)NC4(c5cccnn5)CC4)c(OC)cc3C)c(F)c12	1 to 250
CNC(=O)c1c(-c2ccc(F)cc2)oc2ccc(-c3cc(C(=O)NC4(c5ccnnc5)CC4)ccc3C)c(F)c12	1 to 250
CNC(=O)c1c(-c2ccc(F)cc2)oc2ccc(-c3cc(C(=O)NC4(c5nc(C)cc(C)n5)CC4)ccc3C)c(F)c12	1 to 250
CNC(=O)c1c(-c2ccc(F)cc2)oc2ccc(-c3cc(C(=O)NC4(c5ncc(C)cn5)CC4)ccc3C)c(F)c12	1 to 250
CNC(=O)c1c(-c2ccc(F)cc2)oc2ccc(-c3cc(C(=O)NC4(c5cccnn5)CC4)ccc3C)cc12	1 to 250
CNC(=O)c1c(-c2ccc(F)cc2)oc2ccc(-c3cc(C(=O)NC4(c5cnn(C)c5)CC4)ccc3C)cc12	1 to 250
CNC(=O)c1c(-c2ccc(F)cc2)oc2ccc(-c3cc(C(=O)NC4(c5nccc(C)n5)CC4)ccc3C)c(F)c12	1 to 250
CNC(=O)c1c(-c2ccc(F)cc2)oc2ccc(-c3cc(C(=O)NC4(c5ncc(F)cn5)CC4)ccc3C)c(F)c12	1 to 250
